Assay results published in ChEMBL document CHEMBL1156800, “Probing Torpedo californica acetylcholinesterase catalytic gorge with two novel bis-functional galanthamine derivatives” (J Med Chem, 2010).

Target: Acetylcholinesterase (Homo sapiens, UniProt P22303)
Experiment: Inhibition of human recombinant AChE

Acetylcholinesterase, sequence (P22303 whole entry): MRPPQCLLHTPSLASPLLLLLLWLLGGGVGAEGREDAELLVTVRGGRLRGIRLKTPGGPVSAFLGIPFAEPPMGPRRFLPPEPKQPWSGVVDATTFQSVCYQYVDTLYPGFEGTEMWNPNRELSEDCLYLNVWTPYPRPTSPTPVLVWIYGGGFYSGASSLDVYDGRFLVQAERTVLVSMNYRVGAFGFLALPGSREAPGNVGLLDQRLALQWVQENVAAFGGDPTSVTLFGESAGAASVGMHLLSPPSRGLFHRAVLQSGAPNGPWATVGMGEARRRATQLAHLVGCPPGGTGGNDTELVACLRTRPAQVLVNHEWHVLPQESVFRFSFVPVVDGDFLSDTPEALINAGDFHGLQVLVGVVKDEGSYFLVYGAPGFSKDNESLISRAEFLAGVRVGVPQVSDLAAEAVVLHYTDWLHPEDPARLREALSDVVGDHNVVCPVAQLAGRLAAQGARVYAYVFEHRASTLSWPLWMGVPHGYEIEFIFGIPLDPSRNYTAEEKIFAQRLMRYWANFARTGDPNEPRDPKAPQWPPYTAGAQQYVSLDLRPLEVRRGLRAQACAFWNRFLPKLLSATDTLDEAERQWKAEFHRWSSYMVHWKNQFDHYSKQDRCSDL

For COc1ccc2c3c1O[C@H]1C[C@@H](O)C=C[C@@]31CCN(CCCCCCCCN1C(=O)c3ccccc3S1(=O)=O)C2, which IC50 is on record?
The IC50 was 50 nM.
